In paper PMC7221826, “5-Oxo-hexahydroquinoline Derivatives and Their Tetrahydroquinoline Counterparts as Multidrug Resistance Reversal Agents” (Molecules, 2020):
Read-outs that look alike come from different tables or passages of the source.

What was measured:
MCF-7 = experiment: MTT cell viability assay, MCF-7; format: cell-based, human; settings: read-out: IC50 (µM) in Cultured Cells MCF-7
Description: (§1) Cell lines used for cytotoxicity assays included MCF-7 (human breast adenocarcinoma), A549 (human lung adenocarcinoma), K562 (human chronic myelogenous leukemia) and HEK-293 (human embryonic kidney) cells and were obtained from the Iranian Biological Resource Center, Tehran, Iran. MES-SA-DX5 multidrug resistant human uterine sarcoma, over-expressing P-gp and their parental non-resistant MES-SA cell lines were purchased from Sigma-Aldrich (St. Louis, MO, USA). All cells, except for HEK-293, were cultured in RPMI 1640 supplemented with 10% FBS and 100 units/mL penicillin-streptomycin at 37 °C in humidified air containing 5% CO2. HEK-293 cells were maintained in DMEM-F12 medium containing L-glutamine 2 mM supplemented with FBS and penicillin-streptomycin. MES-SA-DX5 cells were maintained in media containing 100 nM doxorubicin in order to ensure that only drug-resistant cells continue to grow.
(§2) Cytotoxicity of the test compounds were evaluated by MTT assay. In this method, reduction of MTT, a yellow tetrazolium salt to the purple formazan, by cellular dehydrogenase enzymes is determined as an index of cell viability. Cancer cells were seeded into 96-well plates (3–5 × 10^3 cells/well) and incubated for 24 h at 37 °C. Afterwards, four different concentrations of synthesized derivatives were added in triplicate and the cells were incubated at 37 °C for another 72 h, after which the media was replaced with MTT solution at a concentration of 0.5 mg/mL was added for MTT assay. After another 4h, formazan crystals were dissolved in 200 μL DMSO for 90 min and absorbance was measured at a wavelength of 570 nm with background correction at 650 nm using a microplate reader (model 680, Bio-Rad, Hercules, CA, USA) and IC50 for each compound was calculated with CurveExpert version 1.34 for Windows.

A-549 = experiment: MTT cell viability assay, A-549; format: cell-based, human; settings: read-out: IC50 (µM) in Cultured Cells A-549
Description: as §1, §2

K562 = experiment: MTT cell viability assay, K562; format: cell-based, human; settings: read-out: IC50 (µM) in Cultured Cells K562
Description: as §1, §2

MES-SA-DX5 = experiment: MTT cell viability assay, MES-SA-DX5; format: cell-based, human; settings: multidrug resistant, P-gp overexpressing, read-out: IC50 (µM) in Cultured Cells MES-SA-DX5
Description: as §1, §2

MES-SA = experiment: MTT cell viability assay, MES-SA; format: cell-based, human; settings: for IC50: MTT, 72 h, parental non-resistant, read-out: IC50 (µM) in Cultured Cells MES-SA
Description: as §1, §2

HEK-293 = experiment: MTT cell viability assay, HEK-293; format: cell-based, human; settings: non-cancerous, read-out: IC50 (µM) in Cultured Cells HEK-293
Description: as §1, §2

MES-SA-DX5 cells = experiment: Cell cycle analysis by propidium iodide (PI)-RNase flow cytometry; format: cell-based, human; design: Sub G1: unit not given here; settings: 24 h
Method: The analysis of cells in different phases of cell cycle and sub-G1 was performed using propidium iodide (PI)-RNase assay by flow cytometry. MES-SA-DX5 cells were seeded in 12-well plates (1 × 10^6 cells/well) and treated with different concentrations of synthesized compounds for 24 h. The cells were then collected, washed with PBS, and fixed with 70% ethanol overnight at –20 °C. After at least 24 h, fixed cells were washed with PBS and subsequently stained with a DNA staining solution containing PI 20 μg/mL and RNase 200 μg/mL at room temperature for 30 min in the dark. Twenty thousand cells of each sample were analyzed using a BD FACSCalibur flow cytometer (BD Biosciences, USA) and the amount of the cells in sub-G1, G0/G1, S, and G2/M phases were estimated using CellQuest (Becton Dickinson, San Jose, CA, USA) software.
Therefore, it could be concluded that these compounds cause cytotoxicity in drug resistant MES-SA-DX5 cells by induction of apoptosis in these cells.
Figure 3 Effect of synthesized derivatives on cell cycle alterations in MES-SA-DX5 drug resistant cells. The cells in different phases of cell cycle were monitored using propidium iodide (PI)-RNase assay by flow cytometry. MES-SA-DX5 cells were seeded in 12-well plates (1 × 10^6 cells/well) and treated with different concentrations of synthesized compounds for 24 h. The cells were then collected, washed with PBS and fixed with 70% ethanol overnight at –20 °C. After at least 24 h, fixed cells were washed with PBS and subsequently stained with a DNA staining solution containing PI 20 μg/mL and RNase 200 μg/mL at room temperature for 30 min in the dark. Twenty thousand cells of each sample were analyzed using a FACS Calibur flow cytometer (BD Biosciences, USA). Representative histograms of cells treated with synthesized compounds are shown. An increase in sub-G1 phase cells could be observed after treatment with A1, A2, B1, and B2 compounds.

Compound	IC50 (MCF-7; Homo sapiens, MCF7, 72 h)	IC50 (A-549; Homo sapiens, A549, 72 h)	IC50 (K562; Homo sapiens, K562, 72 h)	melting point	IC50 (HEK-293; 72 h)	IC50 (MES-SA-DX5; Homo sapiens, MES-SA/Dx5, 72 h)	IC50 (MES-SA; Homo sapiens, MES-SA)	IC50 (HEK-293; Homo sapiens, HEK293, 72 h)	also measured
4-(3,4-Dimethoxyphenyl)-2-methyl-N-(5-methylthiazol-2-yl)-5-oxo-5,6,7,8-tetrahydroquinoline-3-carboxamide [Compound B8]									IC50 (MCF-7; 72 h): > 100 µM; IC50 (A-549; 72 h): > 100 µM; IC50 (K562; 72 h): 67.5 ± 8 µM; IC50 (MES-SA-DX5; 72 h): > 100 µM
N.N.[Cl][Pt][Cl] [Cisplatin, cisplatin, reference compound]					1.1 ± 0.5 µM				IC50 (MCF-7; 72 h): 26.3 ± 7.9 µM; IC50 (A-549; 72 h): 14 ± 0.5 µM; IC50 (K562; 72 h): 3.3 ± 2.3 µM; IC50 (MES-SA-DX5; 72 h): 8.6 ± 0.5 µM; IC50 (MES-SA): 1.2 ± 0.1 µM
CC1=C(C(=O)Nc2csc(C)n2)C(c2cccc(Cl)c2)C2=C(CCCC2=O)N1 (stereo not shown) [Compound A3, 4-(3-Chlorophenyl)-2-methyl-N-(2-methylthiazol-4-yl)-5-oxo-1,4,5,6,7,8-hexahydroquinoline-3-carboxamide]	> 100 µM	> 100 µM	56.4 ± 7 µM	253 °C	93.7 ± 11.9 µM	78 ± 4 µM	> 100 µM	> 50 µM	G0/G1 (MES-SA-DX5 cells; 10 µM): 50.35 ± 4.5; G2/M (MES-SA-DX5 cells; 10 µM): 23.25 ± 1.6; S (MES-SA-DX5 cells; 10 µM): 18.23 ± 2.6; Sub G1 (MES-SA-DX5 cells; 10 µM): 0.51 ± 0.1; G0/G1 (MES-SA-DX5 cells; 25 µM): 56.18 ± 1.2; G2/M (MES-SA-DX5 cells; 25 µM): 23.08 ± 1.0; S (MES-SA-DX5 cells; 25 µM): 19.70 ± 2.0; Sub G1 (MES-SA-DX5 cells; 25 µM): 0.97 ± 0.2; G0/G1 (MES-SA-DX5 cells; 100 µM): 53.64 ± 1.4; G2/M (MES-SA-DX5 cells; 100 µM): 29.46 ± 1.8; S (MES-SA-DX5 cells; 100 µM): 13.31 ± 1.0
COc1cc(C2C(C(=O)Nc3csc(C)n3)=C(C)NC3=C2C(=O)CCC3)cc(OC)c1OC (stereo not shown) [Compound A4, 2-Methyl-N-(2-methylthiazol-4-yl)-5-oxo-4-(3,4,5-trimethoxyphenyl)-1,4,5,6,7,8-hexahydroquinoline-3-carboxamide]	> 100 µM	> 100 µM	> 100 µM	160 °C		> 100 µM			
CC1=C(C(=O)Nc2csc(C)n2)C(c2ccc(Cl)cc2)C2=C(CCCC2=O)N1 (stereo not shown) [Compound A5, 4-(4-Chlorophenyl)-2-methyl-N-(2-methylthiazol-4-yl)-5-oxo-1,4,5,6,7,8-hexahydroquinoline-3-carboxamide]	72.9 ± 12.3 µM	87.4 ± 1.5 µM	31.5 ± 3.3 µM	253 °C	71.1 ± 10.1 µM	40.3 ± 3 µM	69.5 ± 12.5 µM	> 50 µM	G0/G1 (MES-SA-DX5 cells; 10 µM): 56.07 ± 0.3; G2/M (MES-SA-DX5 cells; 10 µM): 24.20 ± 1.2; S (MES-SA-DX5 cells; 10 µM): 19.03 ± 0.9; Sub G1 (MES-SA-DX5 cells; 10 µM): 0.65 ± 0.2; G0/G1 (MES-SA-DX5 cells; 25 µM): 58.03 ± 0.7; G2/M (MES-SA-DX5 cells; 25 µM): 22.33 ± 0.5; S (MES-SA-DX5 cells; 25 µM): 18.90 ± 0.9; Sub G1 (MES-SA-DX5 cells; 25 µM): 0.70 ± 0.3; G0/G1 (MES-SA-DX5 cells; 100 µM): 48.92 ± 1.4; G2/M (MES-SA-DX5 cells; 100 µM): 29.32 ± 1.2; S (MES-SA-DX5 cells; 100 µM): 18.58 ± 0.6
CCOc1cc(C2C(C(=O)Nc3csc(C)n3)=C(C)NC3=C2C(=O)CCC3)ccc1O (stereo not shown) [Compound A6, 4-(3-Ethoxy-4-hydroxyphenyl)-2-methyl-N-(2-methylthiazol-4-yl)-5-oxo-1,4,5,6,7,8-hexahydroquinoline-3-carboxamide]	> 100 µM	> 100 µM	> 100 µM	251 °C		> 100 µM			
COc1ccc(C2C(C(=O)Nc3csc(C)n3)=C(C)NC3=C2C(=O)CCC3)cc1 (stereo not shown) [Compound A7, 4-(4-Methoxyphenyl)-2-methyl-N-(2-methylthiazol-4-yl)-5-oxo-1,4,5,6,7,8-hexahydroquinoline-3-carboxamide]	> 100 µM	> 100 µM	> 100 µM	185 °C		> 100 µM			
COc1ccc(C2C(C(=O)Nc3csc(C)n3)=C(C)NC3=C2C(=O)CCC3)cc1OC (stereo not shown) [Compound A8, 4-(3,4-Dimethoxyphenyl)-2-methyl-N-(2-methylthiazol-4-yl)-5-oxo-1,4,5,6,7,8-hexahydroquinoline-3-carboxamide]	> 100 µM	> 100 µM	> 100 µM	222 °C		> 100 µM			
COc1cccc2c1C(=O)c1c(O)c3c(c(O)c1C2=O)C[C@@](O)(C(=O)CO)C[C@@H]3O[C@H]1C[C@H](N)[C@H](O)[C@H](C)O1 [Doxorubicin, reference compound]	0.115 ± 0.042 µM	0.575 ± 0.127 µM	0.042 ± 0.006 µM			2.2 ± 0.3 µM	0.01 ± 0.002 µM	0.009 ± 0.002 µM	G0/G1 (MES-SA-DX5 cells; 2.5 µM): 34.23 ± 3.3; G2/M (MES-SA-DX5 cells; 2.5 µM): 52.10 ± 4.4; S (MES-SA-DX5 cells; 2.5 µM): 12.57 ± 1.4; Sub G1 (MES-SA-DX5 cells; 2.5 µM): 1.08 ± 0.2; G0/G1 (MES-SA-DX5 cells; 5 µM): 21.50 ± 2.5; G2/M (MES-SA-DX5 cells; 5 µM): 64.13 ± 4.2; S (MES-SA-DX5 cells; 5 µM): 12.57 ± 1.7; Sub G1 (MES-SA-DX5 cells; 5 µM): 1.81 ± 0.3; sensitivity of parental MES-SA cells compared to resistant cells (MES-SA; MES-SA vs MES-SA-DX5, MTT): more than 200 times

Second part, led by results:

IC50 (MCF-7; Homo sapiens, MCF7, 72 h)	IC50 (A-549; Homo sapiens, A549, 72 h)	IC50 (K562; Homo sapiens, K562, 72 h)	melting point	Compound	IC50 (HEK-293; 72 h)	IC50 (MES-SA-DX5; Homo sapiens, MES-SA/Dx5, 72 h)	IC50 (MES-SA; Homo sapiens, MES-SA)	IC50 (HEK-293; Homo sapiens, HEK293, 72 h)	also measured
> 100 µM	> 100 µM	50.2 ± 2.6 µM	241 °C	Cc1nc(NC(=O)c2c(C)nc3c(c2-c2cccc(Cl)c2)C(=O)CCC3)cs1 [Compound B3, 4-(3-Chlorophenyl)-2-methyl-N-(2-methylthiazol-4-yl)-5-oxo-5,6,7,8-tetrahydroquinoline-3-carboxamide]	> 100 µM	85.2 ± 7.4 µM	> 100 µM	> 50 µM	
> 100 µM	> 100 µM	> 100 µM	238 °C	COc1cc(-c2c(C(=O)Nc3csc(C)n3)c(C)nc3c2C(=O)CCC3)cc(OC)c1OC [Compound B4, 2-Methyl-N-(2-methylthiazol-4-yl)-5-oxo-4-(3,4,5-trimethoxyphenyl)-5,6,7,8-tetrahydroquinoline-3-carboxamide]		> 100 µM			
> 100 µM	> 100 µM	> 100 µM	267 °C	CCOc1cc(-c2c(C(=O)Nc3csc(C)n3)c(C)nc3c2C(=O)CCC3)ccc1O [Compound B6, 4-(3-Ethoxy-4-hydroxyphenyl)-2-methyl-N-(2-methylthiazol-4-yl)-5-oxo-5,6,7,8-tetrahydroquinoline-3-carboxamide]		> 100 µM			
> 100 µM	> 100 µM	32.9 ± 5.1 µM	166 °C	COc1ccc(-c2c(C(=O)Nc3csc(C)n3)c(C)nc3c2C(=O)CCC3)cc1 [Compound B7, 4-(4-Methoxyphenyl)-2-methyl-N-(2-methylthiazol-4-yl)-5-oxo-5,6,7,8-tetrahydroquinoline-3-carboxamide]		> 100 µM			
